Experimental data published in ChEMBL document CHEMBL2086273, “Significant activity of ecdysteroids on the resistance to doxorubicin in mammalian cancer cells expressing the human ABCB1 transporter” (J Med Chem, 2012).

Tests used:
Type in all cases: cell-based
[1] = target: T1, ATP-dependent translocase ABCB1 (Homo sapiens, UniProt P08183); assay: Inhibition of human ABCB1 expressed in mouse L5178 cells assessed as 75% inhibition of cell proliferation at compound-doxorubicin ratio of 20.4:1 after 48 hrs by MTT assay; conditions: l5178, 48 h
T1 sequence (P08183 whole entry): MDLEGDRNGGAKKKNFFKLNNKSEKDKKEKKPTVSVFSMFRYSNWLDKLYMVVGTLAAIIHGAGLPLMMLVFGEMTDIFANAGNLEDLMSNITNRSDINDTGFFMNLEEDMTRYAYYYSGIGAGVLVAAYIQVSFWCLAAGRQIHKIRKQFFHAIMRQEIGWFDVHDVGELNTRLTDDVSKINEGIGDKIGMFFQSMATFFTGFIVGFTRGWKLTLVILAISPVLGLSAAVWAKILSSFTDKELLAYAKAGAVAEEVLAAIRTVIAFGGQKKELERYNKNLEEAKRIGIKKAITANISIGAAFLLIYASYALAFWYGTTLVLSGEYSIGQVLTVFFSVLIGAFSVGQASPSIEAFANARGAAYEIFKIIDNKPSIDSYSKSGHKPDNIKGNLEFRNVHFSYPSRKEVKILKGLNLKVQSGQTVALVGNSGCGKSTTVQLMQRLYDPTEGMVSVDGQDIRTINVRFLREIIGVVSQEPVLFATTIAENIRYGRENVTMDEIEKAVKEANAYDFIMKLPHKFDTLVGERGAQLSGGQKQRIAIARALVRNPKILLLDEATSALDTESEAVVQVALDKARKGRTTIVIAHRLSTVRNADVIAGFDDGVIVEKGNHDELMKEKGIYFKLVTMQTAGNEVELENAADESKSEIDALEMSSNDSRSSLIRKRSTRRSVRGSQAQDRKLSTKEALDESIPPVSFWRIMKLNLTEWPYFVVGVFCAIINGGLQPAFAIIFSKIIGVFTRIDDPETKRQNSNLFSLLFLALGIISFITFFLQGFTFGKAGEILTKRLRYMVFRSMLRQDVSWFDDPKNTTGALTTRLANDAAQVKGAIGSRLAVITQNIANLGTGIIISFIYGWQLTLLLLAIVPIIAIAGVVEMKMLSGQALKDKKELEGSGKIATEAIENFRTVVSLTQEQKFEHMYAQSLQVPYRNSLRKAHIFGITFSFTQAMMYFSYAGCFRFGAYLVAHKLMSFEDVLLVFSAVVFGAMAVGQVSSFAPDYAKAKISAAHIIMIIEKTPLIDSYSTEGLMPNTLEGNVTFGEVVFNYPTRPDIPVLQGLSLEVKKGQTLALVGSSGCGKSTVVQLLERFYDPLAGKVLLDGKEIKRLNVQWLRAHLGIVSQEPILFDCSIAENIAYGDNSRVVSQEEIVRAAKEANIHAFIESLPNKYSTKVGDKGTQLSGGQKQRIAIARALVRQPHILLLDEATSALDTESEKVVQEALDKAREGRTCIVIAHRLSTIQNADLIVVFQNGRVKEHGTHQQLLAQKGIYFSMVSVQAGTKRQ

[2] = target: T1, ATP-dependent translocase ABCB1; assay: Inhibition of human ABCB1 pump expressed in mouse L5178 cells assessed as fluorescence activity ratio at 20 uM for 10 mins by flow cytometry relative to control; conditions: l5178, 10 min
[3] = target: T1, ATP-dependent translocase ABCB1; assay: Inhibition of human ABCB1 expressed in mouse L5178 cells assessed as 95% inhibition of cell proliferation at compound-doxorubicin ratio of 20.4:1 after 48 hrs by MTT assay; conditions: l5178, 48 h
[4] = target: T1, ATP-dependent translocase ABCB1; assay: Inhibition of human ABCB1 expressed in mouse L5178 cells assessed as 50% inhibition of cell proliferation at compound-doxorubicin ratio of 20.4:1 after 48 hrs by MTT assay; conditions: l5178, 48 h
[5] = target: T1, ATP-dependent translocase ABCB1; assay: Inhibition of human ABCB1 expressed in mouse L5178 cells assessed as 95% inhibition of cell proliferation at compound-doxorubicin ratio of 81.5:1 after 48 hrs by MTT assay; conditions: l5178, 48 h
[6] = target: T1, ATP-dependent translocase ABCB1; assay: Inhibition of human ABCB1 expressed in mouse L5178 cells assessed as 50% inhibition of cell proliferation at compound-doxorubicin ratio of 81.5:1 after 48 hrs by MTT assay; conditions: l5178, 48 h
[7] = target: T1, ATP-dependent translocase ABCB1; assay: Inhibition of human ABCB1 expressed in mouse L5178 cells assessed as 75% inhibition of cell proliferation at compound-doxorubicin ratio of 81.5:1 after 48 hrs by MTT assay; conditions: l5178, 48 h

| SMILES | fractional inhibitory concentration index (FICI) [1] | Ratio [2] | fractional inhibitory concentration index (FICI) [3] | fractional inhibitory concentration index (FICI) [4] | fractional inhibitory concentration index (FICI) [5] | fractional inhibitory concentration index (FICI) [6] | fractional inhibitory concentration index (FICI) [7] |
| --- | --- | --- | --- | --- | --- | --- | --- |
| C=C(CCCC(C)(C)O)[C@H]1CC[C@@]2(O)C3=CC(=O)[C@@H]4C[C@@H](O)[C@@H](O)[C@@H](O)[C@]4(C)[C@H]3CC[C@]12C | 0.86 | 1.58 | 0.95 | 0.79 |  |  |  |
| CC(C)(O)CC[C@H]1OC(C)(C)O[C@]1(C)[C@H]1CC[C@@]2(O)C3=CC(=O)[C@]4(O)C[C@@H](O)[C@@H](O)C[C@]4(C)[C@H]3CC[C@]12C |  | 1.8 |  |  | 0.11 | 0.63 | 0.21 |
| CC(C)(O)CC[C@@H](O)[C@](C)(O)[C@H]1CC[C@@]2(O)C3=CC(=O)[C@H]4C[C@@H](O)C[C@@H](O)[C@]4(C)[C@H]3CC[C@]12C | 1.7 | 0.68 | 1.97 | 2.48 |  |  |  |
| CCC1=C(C)C(=O)O[C@@H]([C@](C)(O)[C@H]2CC[C@@]3(O)C4=CC(=O)[C@@H]5C[C@@H](O)[C@@H](O)C[C@]5(C)[C@H]4CC(=O)[C@]23C)C1 [AJUGALACTONE] |  | 0.87 |  |  | 2.89 | 1.43 | 1.96 |
| CC(C)(O)CC[C@@H](O)[C@](C)(O)[C@H]1CC[C@@]2(O)C3=CC(=O)[C@]4(O)C[C@@H](O)[C@@H](O)C[C@]4(C)[C@H]3CC[C@]12C [POLYPODINE B] | 0.8 | 0.77 | 0.58 | 1.11 |  |  |  |
| CC(C)(O)CC[C@H]1OC(C)(C)O[C@]1(C)[C@H]1CC[C@@]2(O)C3=CC(=O)[C@@H]4C[C@@H](O)[C@H]5OC(C)(C)O[C@H]5[C@]4(C)[C@H]3CC[C@]12C | 0.42 | 2.43 | 0.28 | 0.66 |  |  |  |
| CC(C)(O)CC[C@H]1OC(C)(C)O[C@]1(C)[C@H]1CC[C@@]2(O)C3=CC(=O)[C@H]4C[C@@H](O)CC[C@]4(C)[C@H]3CC[C@]12C |  | 8.19 |  |  | 0.37 | 1.28 | 0.69 |
| CC(=O)O[C@H]1CC[C@@]2(C)[C@@H](C1)C(=O)C=C1[C@@H]2CC[C@]2(C)[C@@H]([C@H](C)[C@@H](CCC(C)(C)OC(C)=O)OC(C)=O)CC[C@@]12O | 0.23 | 25.07 | 0.14 | 0.41 |  |  |  |
| CC(C)(O)CC[C@H]1OC(C)(C)O[C@]1(C)[C@H]1CC[C@@]2(O)C3=CC(=O)[C@@H]4C[C@@H](O)[C@@H](O)C[C@]4(C)[C@H]3CC[C@]12C | 0.54 | 1.53 | 0.35 | 0.84 |  |  |  |
| CC(C)(O)CC[C@@H](O)[C@](C)(O)[C@H]1CC[C@@]2(O)C3=CC(=O)[C@@H]4C[C@@H](O)[C@@H](O)C[C@]4(C)[C@H]3[C@H](O)C[C@]12C [TURKESTERONE] |  | 0.93 |  |  | 4.2 | 5.19 | 4.53 |
| CC(=O)O[C@H]1C[C@]2(C)[C@H]3CC[C@]4(C)[C@@H]([C@@](C)(O)[C@@H](CCC(C)(C)OC(C)=O)OC(C)=O)CC[C@@]4(O)C3=CC(=O)[C@]2(O)C[C@H]1OC(C)=O |  | 1.48 |  |  | 0.38 | 0.65 | 0.46 |
| CC(C)(O)CC[C@@H](O)[C@](C)(O)[C@H]1CC[C@@]2(O)C3=CC(=O)[C@@]4(O)C[C@@H](O)CC[C@]4(C)[C@H]3CC[C@]12C |  | 1.21 |  |  | 0.27 | 0.78 | 0.45 |
| CC(C)CC[C@H]1OC(C)(C)O[C@]1(C)[C@H]1CC[C@@]2(O)C3=CC(=O)[C@@H]4C[C@H]5OC(C)(C)O[C@H]5C[C@]4(C)C3=CC[C@]12C | 0.14 | 41.15 | 0.1 | 0.19 |  |  |  |
| CC(C)CC[C@@H](O)[C@](C)(O)[C@H]1CC[C@@]2(O)C3=CC(=O)[C@]4(O)C[C@@H](O)[C@@H](O)C[C@]4(C)[C@H]3[C@H](O)C[C@]12C [MURISTERONE A] |  | 0.74 |  |  |  |  |  |
| CC(C)CC[C@@H](O)[C@](C)(O)[C@H]1CC[C@@]2(O)C3=CC(=O)[C@@H]4C[C@@H](O)[C@@H](O)C[C@]4(C)[C@H]3CC[C@]12C [PONASTERONE A] |  | 1.26 |  |  | 0.44 | 1.41 | 0.78 |
| CC(=O)O[C@H](CCC(C)(C)O)[C@](C)(O)[C@H]1CC[C@@]2(O)C3=CC(=O)[C@@H]4C[C@@H](O)[C@@H](O)C[C@]4(C)[C@H]3CC[C@]12C |  | 1.54 |  |  | 0.64 | 1.6 | 0.97 |
| CC(C)(CC[C@@H](O)[C@](C)(O)[C@H]1CC[C@@]2(O)C3=CC(=O)[C@@H]4C[C@@H](O)CC[C@]4(C)[C@H]3CC[C@]12C)O[C@@H]1O[C@H](CO)[C@@H](O)[C@H](O)[C@H]1O |  | 0.68 |  |  | 0.51 | 1.05 | 0.72 |
| CC(=O)O[C@H](CCC(C)(C)O)[C@](C)(O)[C@H]1CC[C@@]2(O)C3=CC(=O)[C@@H]4C[C@@H](O)CC[C@]4(C)[C@H]3CC[C@]12C |  | 1.21 |  |  | 0.44 | 1.03 | 0.66 |
| C[C@H]([C@H](O)CCC(C)(C)O)[C@H]1CC[C@@]2(O)C3=CC(=O)[C@@H]4C[C@@H](O)CC[C@]4(C)[C@H]3CC[C@]12C |  | 0.94 |  |  | 0.81 | 2.05 | 1.27 |
| CC(C)(O)CC[C@@H](O)[C@](C)(O)[C@H]1CC[C@@]2(O)C3=CC(=O)[C@@H]4C[C@@H](O)[C@@H](O)[C@@H](O)[C@]4(C)[C@H]3CC[C@]12C [INTEGRISTERONE A] |  | 0.94 |  |  | 2.42 | 0.8 | 1.31 |
| CC(C)(O)CC[C@@H](O)[C@](C)(O)[C@H]1CC[C@@]2(O)C3=CC(=O)[C@H]4C[C@@H](O)[C@@H](O)C[C@]4(C)[C@H]3CC[C@]12C |  | 0.81 |  |  | 0.37 | 0.99 | 0.57 |
| CC(=O)[C@H]1CC[C@@]2(O)C3=CC(=O)[C@@H]4C[C@@H](O)[C@@H](O)C[C@]4(C)C3=CC[C@]12C |  | 5.4 |  |  | 0.37 | 1.21 | 0.67 |
| CC(C)(O)CCC[C@](C)(O)[C@H]1CC[C@@]2(O)C3=CC(=O)[C@@H]4C[C@@H](O)[C@@H](O)C[C@]4(C)[C@H]3CC[C@]12C |  | 0.67 |  |  | 1.59 | 2.04 | 1.75 |
| CC1(C)CC[C@H]([C@](C)(O)[C@H]2CC[C@@]3(O)C4=CC(=O)[C@@H]5C[C@@H](O)[C@@H](O)C[C@]5(C)[C@H]4CC[C@]23C)O1 [SHIDASTERONE] |  | 0.88 |  |  | 0.096 | 1.44 | 0.32 |
| C[C@H]([C@H](O)CCC(C)(C)O)[C@H]1CC[C@@]2(O)C3=CC(=O)[C@@H]4C[C@@H](O)[C@@H](O)C[C@]4(C)[C@H]3CC[C@]12C [ECDYSONE] |  | 1.38 |  |  | 12.16 | 2.31 | 4.89 |
| CC[C@H](C[C@H]1OC(C)(C)O[C@]1(C)[C@H]1CC[C@@]2(O)C3=CC(=O)[C@@H]4C[C@@H](O)[C@@H](O)C[C@]4(C)[C@H]3CC[C@]12C)C(C)(C)O |  | 1.21 |  |  | 0.091 | 0.81 | 0.26 |
| CC(C)(O)CC[C@@H](O)[C@](C)(O)[C@H]1CC[C@@]2(O)C3=CC(=O)[C@@H]4C[C@@H](O)[C@@H](O)C[C@]4(C)C3=CC[C@]12C |  | 1.24 |  |  | 4.61 | 2.66 | 3.35 |
